For 13 compounds, IC50 and half-life results are on record in ChEMBL document CHEMBL4417631, “Oral peptide inhibitors of interleukin-23 receptor and their use to treat inflammatory bowel diseases” (2017).

*1 amine or outer side, *2 acyl side, *3 side chain or, on linkers, in order; H or OH if unused. Where a SMILES comes first, the peptide text is derived from it. Bridges are numbered along the chain shown (N, C = ends). [ ]: non-standard residue; d: D form. Abu(4-yl) = O=C([C@H](CC[*:3])N[*:1])[*:2]; 2Nal = N[C@@H](Cc1ccc2ccccc2c1)C(=O)O; AEF = NCCOc1ccc(C[C@H](N)C(=O)O)cc1; αMeK = C[C@](N)(CCCCN)C(=O)O Some results are limits rather than exact numbers.

In series [1] the target is T1, Interleukin-23 receptor (Homo sapiens, UniProt Q5VWK5).
T1 sequence (Q5VWK5 whole entry): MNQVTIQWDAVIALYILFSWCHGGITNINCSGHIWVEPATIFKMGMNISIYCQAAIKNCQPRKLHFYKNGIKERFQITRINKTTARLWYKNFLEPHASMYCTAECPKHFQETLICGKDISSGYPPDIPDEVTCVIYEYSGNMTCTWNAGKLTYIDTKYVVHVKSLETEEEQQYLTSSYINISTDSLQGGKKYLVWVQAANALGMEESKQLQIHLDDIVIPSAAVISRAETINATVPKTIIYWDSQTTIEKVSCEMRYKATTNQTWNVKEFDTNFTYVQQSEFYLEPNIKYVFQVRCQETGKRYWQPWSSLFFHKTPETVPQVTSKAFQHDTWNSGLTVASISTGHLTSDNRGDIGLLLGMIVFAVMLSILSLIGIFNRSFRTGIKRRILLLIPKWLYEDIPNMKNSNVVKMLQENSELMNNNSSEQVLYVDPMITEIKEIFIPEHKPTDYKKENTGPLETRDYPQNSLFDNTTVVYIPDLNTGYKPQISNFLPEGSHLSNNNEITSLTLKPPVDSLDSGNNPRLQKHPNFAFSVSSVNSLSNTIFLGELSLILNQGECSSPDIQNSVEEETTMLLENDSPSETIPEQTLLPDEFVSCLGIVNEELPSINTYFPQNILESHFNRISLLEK
The experiment in a line: Inhibition of interleukin-23 binding to human interleukin-23 receptor incubated for 2 hrs by competitive binding ELISA. For orientation: ELISA stands for enzyme-linked immunosorbent assay.

Series [2] in a line: Half life in simulated gastric fluid at 20 uM by LC-MS/MS analysis. It counts as ADME.
Series [3] is described as follows: Inhibition of interleukin-23 binding to rat interleukin-23 receptor incubated for 2 hrs by competitive binding ELISA.
Series [4] deals with T1, Interleukin-23 receptor. As to the kind of experiment: Inhibition of interleukin-23 receptor in human DB cells assessed as reduction in IL-23-stimulated STAT3 phosphorylation incubated for 30 mins by HTRF assay. It counts as cell-based. A general note: In TR-FRET formats the signal depends on donor and acceptor labels being close together.
Series [5] is described as follows: Half life in simulated intestinal fluid at 20 uM by LC-MS/MS analysis. It counts as ADME.

As to `COc1ccc(C[C@H](NC(=O)[C@@H]2CSCC[C@H](NC(=O)[C@@H](CCCCNC(=O)COCC(=O)NCCCC[C@@H](NC(C)=O)C(=O)N[C@H]3CCSC[C@@H](C(=O)N[C@@H](Cc4ccc(OC)cc4)C(=O)N[C@@H](Cc4ccc5ccccc5c4)C(=O)N[C@@](C)(CC(C)C)C(=O)N[C@@H](CCC(=O)O)C(=O)N[C@@H](CC(N)=O)C(=O)NCC(N)=O)NC(=O)[C@H](CCC(N)=O)NC(=O)[C@H](Cc4c[nH]c5ccccc45)NC(=O)[C@H]([C@@H](C)O)NC(=O)[C@H](CCC(N)=O)NC3=O)NC(C)=O)C(=O)N[C@@H](CCC(N)=O)C(=O)N[C@@H]([C@@H](C)O)C(=O)N[C@@H](Cc3c[nH]c4ccccc34)C(=O)N[C@@H](CCC(N)=O)C(=O)N2)C(=O)N[C@@H](Cc2ccc3ccccc3c2)C(=O)N[C@@](C)(CC(C)C)C(=O)N[C@@H](CCC(=O)O)C(=O)N[C@@H](CC(N)=O)C(=O)NCC(N)=O)cc1`, the IC50 (commonly the concentration that inhibits the measured activity by half) at Interleukin-23 receptor [1] was less than 10 nM; in series [3], 25 to 100 nM; on Interleukin-23 receptor [4] it was less than 10 nM. For the same compound, the half-life (commonly the time in which the quantity being followed falls by half) at 20 µM is less than 1 h in series [2] and 1 to 2 h in series [5].
In the case of `CC(=O)N[C@H](CCC(=O)O)C(=O)N[C@H]1CCSC[C@@H](C(=O)N[C@@H](Cc2ccc(OCCN)cc2)C(=O)N[C@@H](Cc2ccc3ccccc3c2)C(=O)N[C@@](C)(CCCCN)C(=O)N[C@@H](CCC(=O)O)C(=O)N[C@@H](CC(N)=O)C(=O)N[C@@H](CC(N)=O)C(N)=O)NC(=O)[C@H](CCC(N)=O)NC(=O)[C@H](Cc2c[nH]c3ccccc23)NC(=O)[C@H]([C@@H](C)O)NC(=O)[C@H](CCC(N)=O)NC1=O`, the IC50 (at Interleukin-23 receptor [1]; in series [3]; at Interleukin-23 receptor [4]) was less than 10 nM in each case. The half-life at 20 µM in series [2] was 1 to 2 h; in series [5], more than 6 h.
In the case of `CC(=O)NCCOc1ccc(C[C@H](NC(=O)[C@@H]2CSCC[C@H](NC(C)=O)C(=O)N[C@@H](CCC(N)=O)C(=O)N[C@@H]([C@@H](C)O)C(=O)N[C@@H](Cc3c[nH]c4ccccc34)C(=O)N[C@@H](CCC(N)=O)C(=O)N2)C(=O)N[C@@H](Cc2ccc3ccccc3c2)C(=O)N[C@@](C)(CCCCN)C(=O)N[C@@H](CCC(=O)O)C(=O)N[C@@H](CC(N)=O)C(=O)NCC(N)=O)cc1`, the IC50 (on Interleukin-23 receptor [1]; in series [3]; at Interleukin-23 receptor [4]) was less than 10 nM throughout. Also, the half-life at 20 µM was less than 1 h in series [2] and 1 to 2 h in series [5].
With `COc1ccc(C[C@H](NC(=O)[C@@H](NC(=O)[C@H](CCC(N)=O)NC(=O)[C@H](Cc2c[nH]c3ccccc23)NC(=O)[C@@H](NC(=O)[C@H](CCC(N)=O)NC(=O)[C@@H](NC(=O)CCC(=O)O)C(C)(C)S)[C@@H](C)O)C(C)(C)S)C(=O)N[C@@H](Cc2ccc3ccccc3c2)C(=O)N[C@@](C)(CCCCN)C(=O)N[C@@H](CCCCNC(C)=O)C(=O)N[C@@H](CC(N)=O)C(=O)NCC(N)=O)cc1`, the IC50 is 25 to 100 nM on Interleukin-23 receptor [1], 25 to 100 nM in series [3] and less than 10 nM on Interleukin-23 receptor [4]. Moreover, the half-life at 20 µM in series [2] is 3 to 6 h; in series [5], more than 6 h.
For the compound `COc1ccc(C[C@H](NC(=O)[C@H]2NC(=O)[C@H](CCC(N)=O)NC(=O)[C@H](Cc3c[nH]c4ccccc34)NC(=O)[C@H]([C@@H](C)O)NC(=O)[C@H](CCC(N)=O)NC(=O)[C@@H](NC(C)=O)CCSC2(C)C)C(=O)N[C@@H](Cc2ccc3ccccc3c2)C(=O)N[C@@](C)(CCCCN)C(=O)N[C@@H](CCC(=O)O)C(=O)N[C@@H](CC(N)=O)C(=O)NCC(N)=O)cc1`, the IC50 at Interleukin-23 receptor [1] fell in the range of 100 to 1000 nM; in series [3] it was 100 to 1000 nM; at Interleukin-23 receptor [4], 25 to 100 nM. Also, the values for the half-life at 20 µM in series [2] and in series [5] were 2 to 3 h and 3 to 6 h, respectively.
For the compound `CC(=O)N[C@@H](CC(C)C)C(=O)N[C@H]1CCSC[C@@H](C(=O)N[C@@H](Cc2ccc(OCCN)cc2)C(=O)N[C@@H](Cc2ccc3ccccc3c2)C(=O)N[C@@](C)(CCCCN)C(=O)N[C@@H](CCC(=O)O)C(=O)N[C@@H](CC(N)=O)C(=O)N[C@@H](CC(N)=O)C(N)=O)NC(=O)[C@H](CCC(N)=O)NC(=O)[C@H](Cc2c[nH]c3ccccc23)NC(=O)[C@H]([C@@H](C)O)NC(=O)[C@H](CCC(N)=O)NC1=O` (Ac-L[Abu(4-yl)]QTWQC[AEF][2Nal][αMeK]ENN-NH2; thioether 2-7), the IC50 (at Interleukin-23 receptor [1]; in series [3]; at Interleukin-23 receptor [4]) was less than 10 nM in each case. Besides, the results for the half-life at 20 µM in series [2] and in series [5] were 2 to 3 h and more than 6 h, respectively.
In the case of `CC(=O)N[C@@H](CCC(=O)O)C(=O)N[C@H]1CCSC[C@@H](C(=O)N[C@@H](Cc2ccc(OCCN)cc2)C(=O)N[C@@H](Cc2ccc3ccccc3c2)C(=O)N[C@@](C)(CCCCN)C(=O)N[C@@H](CCC(=O)O)C(=O)N[C@@H](CC(N)=O)C(=O)N[C@@H](CC(N)=O)C(N)=O)NC(=O)[C@H](CCC(N)=O)NC(=O)[C@H](Cc2c[nH]c3ccccc23)NC(=O)[C@H]([C@@H](C)O)NC(=O)[C@H](CCC(N)=O)NC1=O`, the IC50 (at Interleukin-23 receptor [1]; in series [3]; at Interleukin-23 receptor [4]) was less than 10 nM throughout. Moreover, the figures for the half-life at 20 µM in series [2] and in series [5] were 2 to 3 h and more than 6 h, respectively.
`CC(=O)NCCCC[C@H](NC(=O)[C@](C)(CCCCN)NC(=O)[C@H](Cc1ccc2ccccc2c1)NC(=O)[C@H](Cc1ccc(OCCN)cc1)NC(=O)[C@@H](NC(=O)[C@H](CCC(N)=O)NC(=O)[C@H](Cc1c[nH]c2ccccc12)NC(=O)[C@@H](NC(=O)[C@H](CCC(N)=O)NC(=O)[C@@H](NC(C)=O)C(C)(C)S)[C@@H](C)O)C(C)(C)S)C(=O)N[C@@H](CC(N)=O)C(=O)N[C@@H](CC(N)=O)C(N)=O`: the figures for the IC50 (on Interleukin-23 receptor [1]; in series [3]; on Interleukin-23 receptor [4]) were less than 10 nM, 10 to 25 nM and less than 10 nM, respectively. Further, the half-life at 20 µM in series [2] and in series [5] was more than 6 h in each case.
For the compound `COc1ccc(C[C@H](NC(=O)[C@@H]2CSCC[C@H](NC(C)=O)C(=O)N[C@@H](CCC(N)=O)C(=O)N[C@@H]([C@@H](C)O)C(=O)N[C@@H](Cc3c[nH]c4ccccc34)C(=O)N[C@@H](CCC(N)=O)C(=O)N2)C(=O)N[C@@H](Cc2c[nH]c3ccccc23)C(=O)N[C@@](C)(CCCN)C(=O)N[C@@H](CCC(=O)O)C(=O)N[C@@H](CC(N)=O)C(=O)NCC(N)=O)cc1`, the IC50 on Interleukin-23 receptor [1] is 25 to 100 nM; in series [3], 25 to 100 nM; on Interleukin-23 receptor [4], less than 10 nM. Besides, the half-life at 20 µM in series [2] was less than 1 h; in series [5], 3 to 6 h.
As to `COc1ccc(C[C@H](NC(=O)[C@@H]2CSCC[C@H](NC(=O)[C@@H](CCCCN)NC(C)=O)C(=O)N[C@@H](CCC(N)=O)C(=O)N[C@@H]([C@@H](C)O)C(=O)N[C@@H](Cc3c[nH]c4ccccc34)C(=O)N[C@@H](CCC(N)=O)C(=O)N2)C(=O)N[C@@H](Cc2ccc3ccccc3c2)C(=O)N[C@@](C)(CC(C)C)C(=O)N[C@@H](CCC(=O)O)C(=O)N[C@@H](CC(N)=O)C(=O)NCC(N)=O)cc1`, the IC50 is less than 10 nM on Interleukin-23 receptor [1], 10 to 25 nM in series [3] and less than 10 nM at Interleukin-23 receptor [4]. Besides, the half-life at 20 µM in series [2] was less than 1 h; in series [5], 1 to 2 h.
For the compound `COc1ccc(C[C@H](NC(=O)[C@@H]2CSCC[C@H](NC(C)=O)C(=O)N[C@@H](CCC(N)=O)C(=O)N[C@@H]([C@@H](C)O)C(=O)N[C@@H](Cc3c[nH]c4ccccc34)C(=O)N[C@@H](CCC(N)=O)C(=O)N2)C(=O)N[C@@H](Cc2ccc3ccccc3c2)C(=O)N[C@@](C)(CCCN)C(=O)N[C@@H](CCC(=O)O)C(=O)N[C@@H](CC(N)=O)C(=O)NCC(N)=O)cc1`, the IC50 at Interleukin-23 receptor [1] is 10 to 25 nM; in series [3], 25 to 100 nM; at Interleukin-23 receptor [4], less than 10 nM. The results for the half-life at 20 µM in series [2] and in series [5] were less than 1 h and 2 to 3 h, respectively.
As to `COc1ccc(C[C@H](NC(=O)[C@@H]2CSCC[C@H](NC(C)=O)C(=O)N[C@@H](CCC(N)=O)C(=O)N[C@@H]([C@@H](C)O)C(=O)N[C@@H](Cc3c[nH]c4ccccc34)C(=O)N[C@@H](CCC(N)=O)C(=O)N2)C(=O)N[C@@H](Cc2c[nH]c3ccccc23)C(=O)N[C@@](C)(CCCCN)C(=O)N[C@@H](CCC(=O)O)C(=O)N[C@@H](CC(N)=O)C(=O)NCC(N)=O)cc1`, the IC50 on Interleukin-23 receptor [1] lay in the range of 10 to 25 nM; in series [3] it was 25 to 100 nM; at Interleukin-23 receptor [4], 10 to 25 nM. In addition, the half-life at 20 µM in series [2] is less than 1 h; in series [5], more than 6 h.
For the compound `CC(=O)NCCCC[C@H](NC(=O)[C@](C)(CCCCN)NC(=O)[C@H](Cc1ccc2ccccc2c1)NC(=O)[C@H](Cc1ccc(C(N)=O)cc1)NC(=O)[C@@H]1CSCC[C@H](NC(C)=O)C(=O)N[C@@H](CCC(N)=O)C(=O)N[C@@H]([C@@H](C)O)C(=O)N[C@@H](Cc2c[nH]c3ccccc23)C(=O)N[C@@H](CCC(N)=O)C(=O)N1)C(=O)N[C@@H](CC(N)=O)C(=O)NCC(N)=O`, the IC50 on Interleukin-23 receptor [1] was 10 to 25 nM; in series [3], 25 to 100 nM; at Interleukin-23 receptor [4], less than 10 nM. Further, the half-life at 20 µM is less than 1 h in series [2] and 1 to 3 h in series [5].
